Tests used:
[1] = tested on: choline acetyltransferase (ChAT); assay: Immunohistochemical staining of ChAT in septal nucleus 5 days after β-amyloid; format: in vivo, mouse; conditions: 0.006% (w/v) ferulic acid for 4 weeks, then β-amyloid (1-42), vs β-amyloid (1-42) only, FIG. 9c
Protocol: Three groups of mice were administered with ferulic acid and/or β-amyloid in accordance with the method of (1). 5 days after the administration of β-amyloid, immunohistochemical staining was carried out according to the method of (1) except for employing 1:750 dilution of anti-choline-acetyltransferase (ChAT) antibody (Chemicon) in order to stain CHAT, an enzyme for acetylcholine synthesis, in the septal nucleus wherein acetylcholine neurons are distributed.

[2] = tested on: mice administered with β-amyloid (1-42); assay: Y-maze test in mice injected with β-amyloid (1-42) into the cerebral ventricle; format: in vivo, mouse; conditions: for alternation behavior (%): compared with β-amyloid (1-42) only group
Protocol: (§1) The administration of β-amyloid (1-42) to a mouse was carried out in accordance with the method described by Laursen & Belknap (J. Pharmacol. Methods, 16, 355-357 (1986)). Specifically, 5 μl of phosphate-buffered saline containing 1.85 μg of β-amyloid (1-42) was put in a 50 μl Hamilton syringe fitted with a 26 gauge needle, the tip of the needle was inserted into the bregma of the mouse and then the β-amyloid (1-42) solution was administered thereto. Each mouse of a control group received an equal amount of β-amyloid (42-1) in place of β-amyloid (1-42). A passive avoidance test was carried out at days 1-2 (day 1: training, day 2: test) and a Y-maze test, at days 3-4 (day 3: training, day 4: test) after the administration.
Spontaneous alternation behavior of a mouse was examined by a Y-maze test in accordance with the method described in Starter et al., Psychopharmacology, 94, 491-495 (1988) as follows.
The Y-maze consisted of three arms shaped like Y. A test mouse was placed in one of the arms such that it faced the arm's terminal and allowed to roan freely through the three arms for […]. The number of alternation was determined by counting the number of occasions the mouse passed the three arms consecutively. Spontaneous alternation behavior was determined as the percentage of the alternation number based on the total number of arm entries.
Further, Y-maze tests were carried out employing the above-prepared mice as in Reference Example 3.
Forty 4- to 5-week old mice each weighing 20 to 25 g were divided into four groups of equal number. Decursinol was dissolved in corn oil, mixed with a mouse fodder, and the mice of two groups were provided with the resulting fodder for 4 weeks at a daily dose of 7.5 mg decursinol/kg or 15 mg decursinol/kg. The mice of the other two groups were provided with a normal mouse fodder containing an equal amount of corn oil as above for 4 weeks. Thereafter, the mice of one of the two normal fodder groups were administered, into their cerebral ventricle, with 1.85 μg of β-amyloid (42-1) (“control group”) and the mice of the remaining three groups, with β-amyloid (1-42) (Aβ1-42), as in Reference Example 1. Then, a passive avoidance test and a Y-maze test were carried out for each group of mice as in Reference Examples 2 and 3, respectively, and the data attained were averaged for each group.

[3] = tested on: mice administered with β-amyloid (1-42); assay: Passive avoidance test in mice injected with β-amyloid (1-42) into the cerebral ventricle; format: in vivo, mouse; conditions: for dementia-preventive effect in passive avoidance test: FIGS. 7A and 7B
Protocol: as §1
In order to examine the learning and memory-retention ability of a mouse, a passive avoidance test was carried out in accordance with the method described in Song et al., J. Neurochem., 71, 875-878 (1998), as follows.
A passive avoidance case equipped with a light room and a dark room was prepared, the floor of the dark room being designed to deliver an electrical shock to a test animal. First, a mouse was put in the light room and, upon entering the dark room, it received an electrical shock at 0.25 mA for 1 sec. Twenty-four hours after the training, the mouse was put in the light room again and the time it took to enter the dark room was measured as a passive avoidance time. The maximum time was set at 300 sec., i.e., in case when the mouse took more than 300 sec. to enter the dark room, the passive avoidance time was determined to be 300 sec.
Forty 4- to 5-week old mice each weighing 20 to 25 g were divided into four groups of equal number. The Angelicae gigas Nakai extract prepared in Example 1 was dissolved in water to concentrations of 0.08% (w/v) and 0.1% (w/v), respectively, […] the solution/mouse. The mice of the other two groups were provided with normal drinking water for 4 weeks. Thereafter, the mice of one of the two normal drinking water groups were administered into their cerebral ventricle with 1.85 μg of β-amyloid (42-1) (“control group”) and the mice of the remaining three groups, with β-amyloid (1-42) (Aβ1-42), as in Reference Example 1. Then, a passive avoidance test was carried out for each group of mice as in Reference Example 2 and the data attained were averaged for each group.
Fifty 4- to 5-week old mice each weighing 20 to 25 g were divided into five groups by equal number. Ferulic acid was dissolved in water to concentrations of 0.002% (w/v), 0.004% (w/v) and 0.006% (w/v), respectively, […] the solution/mouse. The mice of the other two groups were provided with normal drinking water for 4 weeks. Thereafter, the mice of one of two normal drinking water groups were administered into their cerebral ventricle with 1.85 μg of β-amyloid (42-1) (“control group”) and the mice of the remaining four groups, with β-amyloid (1-42)(Aβ1-42), as in Reference Example 1. Then, a passive avoidance test was carried out for each group of mice as in Reference Example 2 and the data attained were averaged for each group.
Forty 4- to 5-week old mice each weighing 20 to 25 g were divided into four groups of equal number. Decursinol was dissolved in corn oil, mixed with a mouse fodder, and the mice of two groups were provided with the resulting fodder for 4 weeks at a daily dose of 7.5 mg decursinol/kg or 15 mg decursinol/kg. […]

mouse cerebral neurons = assay: β-amyloid (1-42)-induced leakage of lactate dehydrogenase (LDH) from primary mouse cortical culture; format: cell-based; conditions: 100 μM ferulic acid 30 minutes before 25 μM β-amyloid (1-42); 24 and 48 hours; vs β-amyloid (1-42) group; FIG. 10
Protocol: In accordance with the method of Wie et al. (Neurosci. Lett., 225: 93-96 (1997)), glia was cultured from cells of the cerebral cortex of a mouse and neurons of mouse cerebrum were cultured by employing the glia as a substrate.
The culture of mouse cerebral neurons was divided into three groups. Neurons of one group received no treatment (control group). Neurons of the other two groups were treated with 25 μM of β-amyloid (1-42), and one of these two groups were treated with 100 μM of ferulic acid 30 minutes before the administration of β-amyloid (1-42).
The degree of damage in neurons was determined by measuring the concentration of lactate dehydrogenase (LDH), which was released from the damaged or disrupted neurons into the culture medium, in accordance with the method of Wie et al. Samples of the culture medium were taken at 24 and 48 hours after the administration of β-amyloid (1-42), respectively, and their LDH concentrations were measured with a microplate reader.

OX-42 = assay: Immunohistochemical staining of OX-42 in pyriform cortex and amygdaloid nucleus one day after β-amyloid; format: in vivo, mouse; conditions: 0.006% (w/v) ferulic acid in drinking water for 4 weeks, then β-amyloid (1-42); 1 day after; vs β-amyloid (1-42) only; FIGS. 8c and 8f
Protocol: 4- to 5-week old mice each weighing 20 to 25 g was divided into three groups. Ferulic acid was dissolved in water to a concentration of 0.006% (w/v), and the mice of one group were provided with the resulting solution instead of water for 4 weeks. The mice of other two groups were provided with normal drinking water for 4 weeks. Thereafter, the mice of one of two normal drinking water groups were administered, into their cerebral ventricle, with 1.85 μg of β-amyloid (42-1) (“control group”) and the mice of the remaining two groups, with β-amyloid (1-42) (β1-42), as in Reference Example 1.
One day after the administration of β-amyloid, each of the mice was anesthetized with sodium pentobarbital and its abdomen was incised. The mouse was fixed by passing 4% paraformaldehyde through its left ventricle and its brain was excised.
In accordance with the method described in Cho et al., J. Comp. Neurol., 369: 264-276 (1996), a section was prepared from the excised brain and immunohistochemical staining was carried out in order to stain […] in the pyriform cortex and the amygdaloid nucleus by employing 1:500 dilution of anti-OX-42 antibody (Halan (Sera-Lab)).

Row | Compound | ChAT staining in septal nucleus [1] | number of arm entries (measure of spontaneous movement) ([2]; ferulic acid, period of administration varied, FIG. 4B) | alternation behavior (%) ([2]; ferulic acid, period of administration varied, FIG. 4A) | passive avoidance response time ([3]; 0.006& (w/v) ferulic acid for 1, 2, 3 and 4 weeks, FIG. 3B) | decrease in passive avoidance response time ([3]; ferulic acid 0.002%, 0.004% and 0.006% (w/v) in drinking water for 4 weeks before Aβ1-42, FIG. 3A) | dementia-preventive effect in passive avoidance test ([3]; ferulic acid alone, low amount: 0.002% (w/v) or 0.003% (w/v)) | LDH concentration in culture medium (mouse cerebral neurons) | OX-42 staining in pyriform cortex and amygdaloid nucleus (OX-42) | number of arm entries (measure of spontaneous movement) ([2]; decursinol 7.5 mg/kg or 15 mg/kg daily for 4 weeks, FIG. 6C) | alternation behavior (%) ([2]; decursinol 7.5 mg/kg or 15 mg/kg daily for 4 weeks, FIG. 6B) | dementia-preventive effect in passive avoidance test ([3]; decursinol alone, low amount: 2 mg/kg or 3 mg/kg) | decrease in passive avoidance response time due to β-amyloid (1-42) ([3]; decursinol in fodder, 7.5 mg/kg or 15 mg/kg daily for 4 weeks, FIG. 6A)
1 | COc1cc(/C=C/C(=O)O)ccc1O [ferulic acid] | the decrease was suppressed | nearly the same for all groups | higher and increased in proportion to the period of administration | becomes increasingly higher with the period of administration | prevented dose-dependently | no dementia-preventive effect | much lower | much less pronounced |  |  |  | 
2 | CC1(C)Oc2cc3oc(=O)ccc3cc2C[C@@H]1O [decursinol] |  |  |  |  |  |  |  |  | nearly the same for all groups | higher and increased dose-dependently | no dementia-preventive effect | prevented

From patent US20050163879A1, “Composition for preventing or treating dementia comprising a hydroxycinnamic acid derivative or an extract of a plant of genus Angelicae containing same” (Scigenic Co. Ltd. Biosynergen, Inc., priority 1999, published 2005)
